Marks after values point to notes of the source that are not given here.
How the values were obtained:
[1] = pH recovery of calcium carbonate slurry after lowering to pH 8 with CO2 enriched air (Example 1); type: physicochemical
From the text: The pH of the aqueous suspension may be measured using any conventional pH meter. […] This may be carried out using either a manual or automatic method, depending on the type of instrument being used.
The pH of the aqueous suspension may be measured by: • mixing a sample of the aqueous suspension to ensure homogeneity, by using either the bench stirrer or the rotating rollers, or by shaking the sample container and contents vigorously; • measuring the temperature of the sample and adjusting the temperature to 22° C.; • removing the pH electrode from its deionised water storage solution and immersing it carefully into the test slurry; • waiting until a stable pH reading is obtained; • recording the pH value of the undisturbed slurry. Viscosity
1 kg samples of a calcium carbonate slurry having 78 wt % solids and 60% of particles less than 2 μm in size (measured using a micrometrics sedigraph) were adjusted to […] at room temperature using 2-amino-2-methyl-1-propanol (AMP) or dimethylethanolamine (DMEA). The control sample was adjusted to pH 10 using dilute sodium hydroxide solution. The solids content of the samples was adjusted using deionised water.
The pH of each slurry was lowered to pH 8 by aspirating the sample with carbon dioxide (CO2) enriched air (2%) using a flow rate of 5 mL/min. When pH 8 had been reached, aspiration of the sample was stopped.
Recovery of the sample pH was then monitored and recorded over subsequent days using the Mettler Toledo FE20 pH meter as described above in the detailed description.

[2] = test system: microbes in contaminated calcium carbonate slurry; assay: Total viable count of contaminated calcium carbonate slurry (Examples 3-5); type: cell-based, bacteria; settings: for level of microbes compared with samples comprising no DMEA: 400, 500 and 600 ppm DMEA alone
Description: The microbe level, for example the total viable count, of the aqueous suspension may be measured using growth medium such as Petrifilm or dipslides. The material under test (for example the aqueous suspension of inorganic particulate material) is diluted with a buffer solution and a measured amount of the dilution is placed on a growth medium (for example, Petrifilm). This is incubated for 48 hours, after which time the number of colonies of bacteria is counted. Each colony has developed from one single bacterium or colony forming unit (cfu). Therefore, the number of colonies, multiplied by the dilution factor, is equivalent to the number of original colony forming units per gram or millilitre of slurry.
For example, the total viable count of an aqueous suspension may be measured by: • mixing a sample of aqueous suspension of inorganic particulate material thoroughly by shaking its container vigorously; • measuring the required weight or volume of the sample. For example, if the results are to be recorded as colony forming units per g (cfu/g), a container containing the buffer solution is placed on the balance and the balance is set to zero. Approximately 1 g of slurry is weighed into the container and its weight is recorded to within 0.1 g. The contents of the container are mixed by shaking it vigorously. If the results are to be recorded as colony forming units per ml (cfu/ml), 1 ml of slurry may be added to a container containing the buffer solution. The contents of the container are mixed by shaking it vigorously; • distributing the diluted sample evenly on the growth medium. The plate may be left undisturbed for at least one minute to allow the gel to solidify; • incubating the contents of the growth medium (for example Petrifilm plates) for 48 hours±2 hours at 30° C.±2° C.; • counting the number of colonies on the growth medium (for example Petrifilm); • calculating the total viable count of the sample by multiplying the number of colonies on the growth medium (for example Petrifilm) by the dilution factor and dividing this by the weight or volume of the sample which was plated on the growth medium. For example:
Samples of a contaminated calcium carbonate slurry having 78 wt % solids and 60% of particles less than 2 μm in size (measured using a micrometrics sedigraph) comprising various amounts of the biocide glutaraldehyde, and DMEA were prepared. The total viable count (cfu/ml) of each sample was measured after 0, 1 and 7 days by the method described above in the detailed description.
Samples of a contaminated calcium carbonate slurry having 78 wt % solids and 60% of particles less than 2 μm in size (measured using a micrometrics sedigraph) comprising various amounts of DMEA and the biocides benzisothiazolinone (BIT) and methylisothiazolinone (MIT) were prepared. The total viable count (cfu/ml) of each sample was measured after 0, 1 and 7 days by the method described above in the detailed description.
Samples of a contaminated calcium carbonate slurry having 78 wt % solids and 60% of particles less than 2 μm in size (measured using a micrometrics sedigraph) comprising various amounts of DMEA were prepared. The total viable count (cfu/ml) of each sample was measured after 0, 1 and 7 days by the method described above in the detailed description.

Q: For `CN(C)CCO` [DMEA, Dimethylethanolamine], which pH of sample ([1]; day 0, before CO2 aspiration) is on record?
A: 10.00

Q: What about the “δ pH” value ([1]; day 0.5) of the same compound?
A: 0.00

Q: What about the pH of sample ([1]; day 0.5, lowered to pH 8 with CO2) of the same compound?
A: 8.00

Q: And the pH of sample ([1]; day 1)?
A: 8.22

Q: What about the “δ pH” value ([1]; day 1) of the same compound?
A: 0.22

Q: What about the pH of sample ([1]; day 2) of the same compound?
A: 8.28

Q: What about the “δ pH” value ([1]; day 2) of the same compound?
A: 0.28

Q: And the pH of sample ([1]; day 3)?
A: 8.35

Q: What about the “δ pH” value ([1]; day 3) of the same compound?
A: 0.35

Q: What about the pH of sample ([1]; day 4) of the same compound?
A: 8.43

Q: And the “δ pH” value ([1]; day 4)?
A: 0.43

Q: What about the pH of sample ([1]; day 9) of the same compound?
A: 8.52

Q: And the “δ pH” value ([1]; day 9)?
A: 0.52

Q: What about the pH of sample ([1]; day 11) of the same compound?
A: 8.55

Q: And the “δ pH” value ([1]; day 11)?
A: 0.55

Q: And the pH of sample ([1]; day 16)?
A: 8.58

Q: And the “δ pH” value ([1]; day 16)?
A: 0.58

Q: And the pH of sample ([1]; day 20)?
A: 8.60

Q: What about the “δ pH” value ([1]; day 20) of the same compound?
A: 0.60

Q: What about the pH of sample ([1]; day 23) of the same compound?
A: 8.64

Q: What about the “δ pH” value ([1]; day 23) of the same compound?
A: 0.64

Q: What about the pH of sample ([1]; day 24) of the same compound?
A: 8.65

Q: What about the “δ pH” value ([1]; day 24) of the same compound?
A: 0.65

Q: What about the pH of sample ([1]; day 27) of the same compound?
A: 8.70

Q: And the “δ pH” value ([1]; day 27)?
A: 0.70

Q: And the pH of sample ([1]; day 28)?
A: 8.79

Q: What about the “δ pH” value ([1]; day 28) of the same compound?
A: 0.79

Q: What about the “pH recovery compared with sample comprising AMP and control sample” value ([1]; recovery from pH 8) of the same compound?
A: increased more rapidly and to a higher level

Q: And the “pH the sample increased to” value ([1]; recovery from pH 8, end of monitoring, control sample 8.3)?
A: 8.8

Q: And the “level of microbes compared with samples comprising no DMEA” value ([2]; after 0 days)?
A: slightly reduced the level of microbes

Q: And the “level of microbes compared with samples comprising no DMEA” value ([2]; after 1 day and 7 days)?
A: further reduced the level of microbes

Q: What about the “Total Viable Count (cfu/ml) of sample as 10^x, x” value (“Total Viable Count (cfu/ml)” for short) ([2]; 400 ppm DMEA in sample, 0 days after preparation) of the same compound?
A: 5 cfu/ml as 10^x

Q: What about the “Total Viable Count (cfu/ml)” value ([2]; 400 ppm DMEA in sample, 1 day after preparation) of the same compound?
A: 4 cfu/ml as 10^x

Q: What about the “Total Viable Count (cfu/ml)” value ([2]; 400 ppm DMEA in sample, 7 days after preparation) of the same compound?
A: 0.1 cfu/ml as 10^x

Q: And the “Total Viable Count (cfu/ml)” value ([2]; 500 ppm DMEA in sample, 0 days after preparation)?
A: 5 cfu/ml as 10^x

Q: What about the “Total Viable Count (cfu/ml)” value ([2]; 500 ppm DMEA in sample, 1 day after preparation) of the same compound?
A: 4 cfu/ml as 10^x

Q: And the “Total Viable Count (cfu/ml)” value ([2]; 500 ppm DMEA in sample, 7 days after preparation)?
A: 0.1 cfu/ml as 10^x

Q: And the “Total Viable Count (cfu/ml)” value ([2]; 600 ppm DMEA in sample, 0 days after preparation)?
A: 5 cfu/ml as 10^x

Q: And the “Total Viable Count (cfu/ml)” value ([2]; 600 ppm DMEA in sample, 1 day after preparation)?
A: 4 cfu/ml as 10^x

Q: And the “Total Viable Count (cfu/ml)” value ([2]; 600 ppm DMEA in sample, 7 days after preparation)?
A: 0.1 cfu/ml as 10^x

Q: And the “reducing total viable count compared with glutaraldehyde alone” value ([2]; DMEA in combination with 50, 100 or 400 ppm glutaraldehyde, after 1 and 7 days)?
A: at least as effective

Q: And the “total viable count compared with glutaraldehyde alone” value ([2]; DMEA in combination with 50 ppm glutaraldehyde, after 0 days)?
A: lower total viable count

Q: What about the “total viable count compared with BIT/MIT but no DMEA” value ([2]; DMEA in combination with 81, 162 or 650 ppm BIT/MIT, after 1 day and 7 days) of the same compound?
A: lower total viable count

Reference: US10590276B2, “Aqueous suspension of inorganic particulate material” (ImerTech SAS, priority 2013, dated 2020)
